Reference: ChEMBL document CHEMBL3991601, “The target landscape of clinical kinase drugs” (Science, 2017)
Activity calls are given as the source filed them.

molecular target: Protein kinase C theta type (Homo sapiens, UniProt Q04759)
Further: in the data inactive means no Kd found up to 30 µM.

Chain of Protein kinase C theta type (Q04759 whole entry): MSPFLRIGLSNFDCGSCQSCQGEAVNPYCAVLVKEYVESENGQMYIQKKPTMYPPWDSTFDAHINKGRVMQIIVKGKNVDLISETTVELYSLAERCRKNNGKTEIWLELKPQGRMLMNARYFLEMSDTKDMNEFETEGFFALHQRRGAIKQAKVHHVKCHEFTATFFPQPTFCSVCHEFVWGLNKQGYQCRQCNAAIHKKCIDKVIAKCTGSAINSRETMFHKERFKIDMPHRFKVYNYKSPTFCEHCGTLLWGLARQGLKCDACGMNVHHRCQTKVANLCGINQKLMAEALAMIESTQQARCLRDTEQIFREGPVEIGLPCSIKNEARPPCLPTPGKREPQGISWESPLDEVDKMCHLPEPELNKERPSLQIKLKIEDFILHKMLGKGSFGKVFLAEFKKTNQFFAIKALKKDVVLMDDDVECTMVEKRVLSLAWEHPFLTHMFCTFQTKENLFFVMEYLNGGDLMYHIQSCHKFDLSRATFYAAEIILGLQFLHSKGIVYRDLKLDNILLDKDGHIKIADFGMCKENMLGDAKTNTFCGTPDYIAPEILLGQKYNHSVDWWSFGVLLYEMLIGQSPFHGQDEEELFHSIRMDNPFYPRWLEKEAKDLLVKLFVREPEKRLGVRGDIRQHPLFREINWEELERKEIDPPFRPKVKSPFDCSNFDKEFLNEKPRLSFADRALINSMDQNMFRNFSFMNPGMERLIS

Structure (SMILES) | Kd
COC(=O)N[C@@H](C)CNc1nccc(-c2cn(C(C)C)nc2-c2cc(Cl)cc(NS(C)(=O)=O)c2F)n1 [ENCORAFENIB] | > 30 µM (inactive)
COc1cc2nccc(Oc3ccc(NC(=O)NC4CC4)c(Cl)c3)c2cc1C(N)=O [LENVATINIB] | > 30 µM (inactive)
Cc1c(F)cc(C(=O)NC2CC2)cc1-c1ccc(C(=O)NCC(C)(C)C)cn1 [LOSMAPIMOD] | > 30 µM (inactive)
O=C(O)[C@]1(Cc2cccc(Nc3nccs3)n2)CC[C@@H](Oc2cccc(Cl)c2F)CC1 [MK-5108] | > 30 µM (inactive)

molecular target: Epidermal growth factor receptor (Homo sapiens, UniProt P00533)
Sequence (P00533 whole entry): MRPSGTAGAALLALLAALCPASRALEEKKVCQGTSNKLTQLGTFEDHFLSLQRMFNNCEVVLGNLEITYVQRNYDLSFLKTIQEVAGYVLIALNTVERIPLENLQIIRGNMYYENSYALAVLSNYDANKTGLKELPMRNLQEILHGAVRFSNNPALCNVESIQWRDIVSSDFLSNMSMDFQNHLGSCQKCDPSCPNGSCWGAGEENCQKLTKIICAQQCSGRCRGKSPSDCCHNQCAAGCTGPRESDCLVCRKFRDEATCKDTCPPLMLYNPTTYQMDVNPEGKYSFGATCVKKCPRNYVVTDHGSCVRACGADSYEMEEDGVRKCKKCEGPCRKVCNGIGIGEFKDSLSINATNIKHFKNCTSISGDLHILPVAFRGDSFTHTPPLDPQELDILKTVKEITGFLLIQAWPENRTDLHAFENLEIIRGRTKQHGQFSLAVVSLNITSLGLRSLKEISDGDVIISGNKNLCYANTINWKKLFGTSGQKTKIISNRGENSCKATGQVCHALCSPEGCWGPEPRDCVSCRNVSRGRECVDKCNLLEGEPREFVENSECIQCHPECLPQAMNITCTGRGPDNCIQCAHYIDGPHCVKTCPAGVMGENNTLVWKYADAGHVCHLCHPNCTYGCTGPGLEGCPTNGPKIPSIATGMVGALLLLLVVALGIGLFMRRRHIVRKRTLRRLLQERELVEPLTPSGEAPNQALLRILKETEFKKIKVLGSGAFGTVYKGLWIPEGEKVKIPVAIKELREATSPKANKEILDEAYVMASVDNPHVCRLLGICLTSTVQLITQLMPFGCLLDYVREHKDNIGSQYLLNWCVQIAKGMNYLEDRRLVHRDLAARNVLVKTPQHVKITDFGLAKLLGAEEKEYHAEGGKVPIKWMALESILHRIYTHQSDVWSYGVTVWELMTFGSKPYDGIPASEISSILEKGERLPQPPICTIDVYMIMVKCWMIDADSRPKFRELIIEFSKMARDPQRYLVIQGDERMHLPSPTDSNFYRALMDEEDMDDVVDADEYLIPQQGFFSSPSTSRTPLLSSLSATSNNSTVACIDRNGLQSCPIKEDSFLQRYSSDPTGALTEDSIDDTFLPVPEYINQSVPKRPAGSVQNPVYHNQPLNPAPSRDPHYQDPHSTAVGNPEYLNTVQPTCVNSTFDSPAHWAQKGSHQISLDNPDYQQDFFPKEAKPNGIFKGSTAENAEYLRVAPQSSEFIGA

Structure (SMILES) | Kd
COC(=O)N[C@@H](C)CNc1nccc(-c2cn(C(C)C)nc2-c2cc(Cl)cc(NS(C)(=O)=O)c2F)n1 [ENCORAFENIB] | > 30 µM (inactive)
Cc1c(F)cc(C(=O)NC2CC2)cc1-c1ccc(C(=O)NCC(C)(C)C)cn1 [LOSMAPIMOD] | > 30 µM (inactive)
O=C(O)[C@]1(Cc2cccc(Nc3nccs3)n2)CC[C@@H](Oc2cccc(Cl)c2F)CC1 [MK-5108] | > 30 µM (inactive)

molecular target: Serine/threonine-protein kinase MRCK gamma (Homo sapiens, UniProt Q6DT37)
Sequence (Q6DT37 whole entry): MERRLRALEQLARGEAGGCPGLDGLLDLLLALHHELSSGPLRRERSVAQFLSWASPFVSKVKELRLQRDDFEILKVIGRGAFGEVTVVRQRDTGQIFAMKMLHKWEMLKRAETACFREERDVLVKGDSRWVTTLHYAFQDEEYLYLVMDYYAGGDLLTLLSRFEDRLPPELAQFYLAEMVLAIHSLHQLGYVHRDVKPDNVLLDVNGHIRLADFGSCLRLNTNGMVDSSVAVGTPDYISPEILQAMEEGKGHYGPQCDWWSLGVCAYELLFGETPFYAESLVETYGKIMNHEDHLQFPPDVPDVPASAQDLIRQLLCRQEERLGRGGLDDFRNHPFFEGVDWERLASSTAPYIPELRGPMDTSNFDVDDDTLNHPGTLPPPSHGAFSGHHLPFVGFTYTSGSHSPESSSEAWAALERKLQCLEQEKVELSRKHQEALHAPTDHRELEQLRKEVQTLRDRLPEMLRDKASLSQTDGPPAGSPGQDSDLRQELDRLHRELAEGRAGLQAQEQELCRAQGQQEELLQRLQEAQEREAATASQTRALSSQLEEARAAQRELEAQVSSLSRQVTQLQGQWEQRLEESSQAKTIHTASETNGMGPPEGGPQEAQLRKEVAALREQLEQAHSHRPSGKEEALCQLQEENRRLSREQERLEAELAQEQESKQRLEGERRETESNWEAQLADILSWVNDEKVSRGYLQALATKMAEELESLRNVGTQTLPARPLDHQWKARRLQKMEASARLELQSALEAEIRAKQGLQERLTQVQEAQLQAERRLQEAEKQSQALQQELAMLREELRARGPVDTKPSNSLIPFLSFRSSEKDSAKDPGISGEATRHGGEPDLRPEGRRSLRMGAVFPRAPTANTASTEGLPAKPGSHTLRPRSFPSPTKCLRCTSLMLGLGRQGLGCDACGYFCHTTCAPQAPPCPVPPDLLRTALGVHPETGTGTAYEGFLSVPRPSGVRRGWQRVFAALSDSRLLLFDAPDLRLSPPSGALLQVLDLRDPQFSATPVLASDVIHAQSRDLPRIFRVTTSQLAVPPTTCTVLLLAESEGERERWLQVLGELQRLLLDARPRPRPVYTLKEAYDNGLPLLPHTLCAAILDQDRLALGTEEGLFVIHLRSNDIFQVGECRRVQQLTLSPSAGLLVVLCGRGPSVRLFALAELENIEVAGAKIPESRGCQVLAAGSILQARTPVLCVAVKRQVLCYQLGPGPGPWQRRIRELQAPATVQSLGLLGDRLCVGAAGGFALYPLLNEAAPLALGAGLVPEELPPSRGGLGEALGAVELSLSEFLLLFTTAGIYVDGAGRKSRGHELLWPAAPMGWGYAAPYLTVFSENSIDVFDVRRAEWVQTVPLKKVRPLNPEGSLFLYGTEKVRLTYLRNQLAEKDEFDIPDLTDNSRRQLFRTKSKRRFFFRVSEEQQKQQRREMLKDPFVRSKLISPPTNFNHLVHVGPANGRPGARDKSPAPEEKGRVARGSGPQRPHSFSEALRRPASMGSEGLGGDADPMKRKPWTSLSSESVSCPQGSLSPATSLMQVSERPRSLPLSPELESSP

Structure (SMILES) | Kd
COC(=O)N[C@@H](C)CNc1nccc(-c2cn(C(C)C)nc2-c2cc(Cl)cc(NS(C)(=O)=O)c2F)n1 [ENCORAFENIB] | > 30 µM (inactive)
COc1cc2nccc(Oc3ccc(NC(=O)NC4CC4)c(Cl)c3)c2cc1C(N)=O [LENVATINIB] | > 30 µM (inactive)
Cc1c(F)cc(C(=O)NC2CC2)cc1-c1ccc(C(=O)NCC(C)(C)C)cn1 [LOSMAPIMOD] | > 30 µM (inactive)
O=C(O)[C@]1(Cc2cccc(Nc3nccs3)n2)CC[C@@H](Oc2cccc(Cl)c2F)CC1 [MK-5108] | > 30 µM (inactive)

molecular target: T1, Thyroid hormone receptor-associated protein 3 (Homo sapiens, UniProt Q9Y2W1)
T1 sequence (Q9Y2W1 whole entry): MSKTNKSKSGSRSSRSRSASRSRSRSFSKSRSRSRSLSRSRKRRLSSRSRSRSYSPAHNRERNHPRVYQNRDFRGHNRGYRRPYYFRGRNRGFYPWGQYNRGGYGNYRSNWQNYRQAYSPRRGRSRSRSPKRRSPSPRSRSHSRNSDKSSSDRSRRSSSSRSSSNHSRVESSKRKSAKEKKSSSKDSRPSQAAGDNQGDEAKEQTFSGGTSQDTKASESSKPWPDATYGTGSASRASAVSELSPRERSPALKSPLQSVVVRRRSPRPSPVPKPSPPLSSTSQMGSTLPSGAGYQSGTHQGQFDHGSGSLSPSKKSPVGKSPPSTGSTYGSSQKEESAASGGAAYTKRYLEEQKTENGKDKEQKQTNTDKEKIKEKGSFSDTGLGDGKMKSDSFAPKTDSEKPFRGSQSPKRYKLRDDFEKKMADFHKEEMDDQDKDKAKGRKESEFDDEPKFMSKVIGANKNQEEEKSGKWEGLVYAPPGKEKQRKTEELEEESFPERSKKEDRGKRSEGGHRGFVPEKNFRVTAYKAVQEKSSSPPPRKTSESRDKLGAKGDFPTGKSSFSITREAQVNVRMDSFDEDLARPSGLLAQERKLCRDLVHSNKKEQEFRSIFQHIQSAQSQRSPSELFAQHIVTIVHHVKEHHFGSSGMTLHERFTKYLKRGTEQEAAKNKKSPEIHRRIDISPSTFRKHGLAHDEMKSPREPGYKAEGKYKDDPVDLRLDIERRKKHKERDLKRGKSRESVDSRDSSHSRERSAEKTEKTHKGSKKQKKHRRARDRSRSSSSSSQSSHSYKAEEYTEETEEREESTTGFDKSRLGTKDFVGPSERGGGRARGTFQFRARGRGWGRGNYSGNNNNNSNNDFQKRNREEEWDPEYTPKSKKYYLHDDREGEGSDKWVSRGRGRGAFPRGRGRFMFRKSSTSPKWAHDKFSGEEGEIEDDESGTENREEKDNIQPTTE

Structure (SMILES) | Kd
COC(=O)N[C@@H](C)CNc1nccc(-c2cn(C(C)C)nc2-c2cc(Cl)cc(NS(C)(=O)=O)c2F)n1 [ENCORAFENIB] | > 30 µM (inactive)
COc1cc2nccc(Oc3ccc(NC(=O)NC4CC4)c(Cl)c3)c2cc1C(N)=O [LENVATINIB] | > 30 µM (inactive)
O=C(O)[C@]1(Cc2cccc(Nc3nccs3)n2)CC[C@@H](Oc2cccc(Cl)c2F)CC1 [MK-5108] | > 30 µM (inactive)

molecular target: Dual specificity protein kinase CLK2 (Homo sapiens, UniProt P49760)
Sequence (P49760 whole entry): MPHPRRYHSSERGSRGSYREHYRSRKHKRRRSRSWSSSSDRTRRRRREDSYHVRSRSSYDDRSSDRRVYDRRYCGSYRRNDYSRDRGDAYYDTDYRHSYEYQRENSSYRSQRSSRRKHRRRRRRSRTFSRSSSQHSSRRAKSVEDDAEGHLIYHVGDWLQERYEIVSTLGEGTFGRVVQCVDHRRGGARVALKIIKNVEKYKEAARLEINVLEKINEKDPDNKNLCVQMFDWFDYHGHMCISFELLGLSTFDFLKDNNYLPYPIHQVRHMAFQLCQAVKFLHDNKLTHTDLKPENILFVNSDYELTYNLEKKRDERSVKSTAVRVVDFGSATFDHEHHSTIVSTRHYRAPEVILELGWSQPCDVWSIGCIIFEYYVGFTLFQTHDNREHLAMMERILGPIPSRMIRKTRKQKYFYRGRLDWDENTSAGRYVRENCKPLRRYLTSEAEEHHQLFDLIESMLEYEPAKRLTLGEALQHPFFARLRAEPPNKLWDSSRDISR

Structure (SMILES) | Kd
COC(=O)N[C@@H](C)CNc1nccc(-c2cn(C(C)C)nc2-c2cc(Cl)cc(NS(C)(=O)=O)c2F)n1 [ENCORAFENIB] | > 30 µM (inactive)
COc1cc2nccc(Oc3ccc(NC(=O)NC4CC4)c(Cl)c3)c2cc1C(N)=O [LENVATINIB] | > 30 µM (inactive)
Cc1c(F)cc(C(=O)NC2CC2)cc1-c1ccc(C(=O)NCC(C)(C)C)cn1 [LOSMAPIMOD] | > 30 µM (inactive)
O=C(O)[C@]1(Cc2cccc(Nc3nccs3)n2)CC[C@@H](Oc2cccc(Cl)c2F)CC1 [MK-5108] | > 30 µM (inactive)

molecular target: T2, Phosphatidylinositol 5-phosphate 4-kinase type-2 alpha (Homo sapiens, UniProt P48426)
T2 sequence (P48426 whole entry): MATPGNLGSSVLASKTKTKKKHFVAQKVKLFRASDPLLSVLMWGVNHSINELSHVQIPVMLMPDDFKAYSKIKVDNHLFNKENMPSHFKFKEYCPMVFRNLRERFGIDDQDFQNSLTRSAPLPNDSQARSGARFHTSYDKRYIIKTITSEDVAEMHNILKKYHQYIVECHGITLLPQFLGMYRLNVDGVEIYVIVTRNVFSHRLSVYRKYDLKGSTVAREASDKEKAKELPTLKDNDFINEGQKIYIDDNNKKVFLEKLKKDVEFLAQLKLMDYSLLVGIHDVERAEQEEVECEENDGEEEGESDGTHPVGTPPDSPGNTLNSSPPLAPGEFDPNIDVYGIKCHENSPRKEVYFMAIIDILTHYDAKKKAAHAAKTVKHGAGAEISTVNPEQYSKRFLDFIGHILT

Structure (SMILES) | Kd
COC(=O)N[C@@H](C)CNc1nccc(-c2cn(C(C)C)nc2-c2cc(Cl)cc(NS(C)(=O)=O)c2F)n1 [ENCORAFENIB] | > 30 µM (inactive)
COc1cc2nccc(Oc3ccc(NC(=O)NC4CC4)c(Cl)c3)c2cc1C(N)=O [LENVATINIB] | > 30 µM (inactive)
Cc1c(F)cc(C(=O)NC2CC2)cc1-c1ccc(C(=O)NCC(C)(C)C)cn1 [LOSMAPIMOD] | > 30 µM (inactive)
O=C(O)[C@]1(Cc2cccc(Nc3nccs3)n2)CC[C@@H](Oc2cccc(Cl)c2F)CC1 [MK-5108] | > 30 µM (inactive)

molecular target: Proto-oncogene tyrosine-protein kinase receptor Ret (Homo sapiens, UniProt P07949)
Sequence (P07949 whole entry): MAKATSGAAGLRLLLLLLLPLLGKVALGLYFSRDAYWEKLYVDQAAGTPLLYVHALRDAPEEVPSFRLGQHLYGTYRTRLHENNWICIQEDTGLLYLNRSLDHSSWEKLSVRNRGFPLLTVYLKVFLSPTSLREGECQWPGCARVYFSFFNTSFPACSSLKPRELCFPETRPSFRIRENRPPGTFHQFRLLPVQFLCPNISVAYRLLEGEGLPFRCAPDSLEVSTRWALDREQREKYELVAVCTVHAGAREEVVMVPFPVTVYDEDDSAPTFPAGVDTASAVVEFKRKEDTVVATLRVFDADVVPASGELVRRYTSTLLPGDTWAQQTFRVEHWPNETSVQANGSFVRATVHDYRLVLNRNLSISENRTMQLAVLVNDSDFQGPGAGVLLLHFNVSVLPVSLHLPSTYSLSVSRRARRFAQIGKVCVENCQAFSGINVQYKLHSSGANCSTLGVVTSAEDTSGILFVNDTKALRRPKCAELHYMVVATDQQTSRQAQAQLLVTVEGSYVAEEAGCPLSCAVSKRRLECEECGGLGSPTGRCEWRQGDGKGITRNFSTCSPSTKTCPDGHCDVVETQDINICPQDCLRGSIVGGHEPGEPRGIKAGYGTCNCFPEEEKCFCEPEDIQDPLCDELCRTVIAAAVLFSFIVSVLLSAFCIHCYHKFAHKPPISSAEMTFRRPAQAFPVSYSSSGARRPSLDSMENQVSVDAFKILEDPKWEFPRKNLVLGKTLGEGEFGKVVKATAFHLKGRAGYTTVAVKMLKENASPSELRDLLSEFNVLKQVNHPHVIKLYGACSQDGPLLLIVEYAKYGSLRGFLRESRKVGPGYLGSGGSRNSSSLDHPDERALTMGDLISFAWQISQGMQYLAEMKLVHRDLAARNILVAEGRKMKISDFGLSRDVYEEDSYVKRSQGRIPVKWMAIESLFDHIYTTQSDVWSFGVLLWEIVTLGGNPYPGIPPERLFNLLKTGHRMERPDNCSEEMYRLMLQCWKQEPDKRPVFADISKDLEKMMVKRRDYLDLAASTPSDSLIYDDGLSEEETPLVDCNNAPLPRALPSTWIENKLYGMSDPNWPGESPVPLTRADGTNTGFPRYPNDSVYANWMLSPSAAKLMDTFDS

Structure (SMILES) | Kd
COC(=O)N[C@@H](C)CNc1nccc(-c2cn(C(C)C)nc2-c2cc(Cl)cc(NS(C)(=O)=O)c2F)n1 [ENCORAFENIB] | > 30 µM (inactive)
Cc1c(F)cc(C(=O)NC2CC2)cc1-c1ccc(C(=O)NCC(C)(C)C)cn1 [LOSMAPIMOD] | > 30 µM (inactive)
O=C(O)[C@]1(Cc2cccc(Nc3nccs3)n2)CC[C@@H](Oc2cccc(Cl)c2F)CC1 [MK-5108] | 0.388 µM (active)

molecular target: T3, Isoleucine--tRNA ligase, mitochondrial (Homo sapiens, UniProt Q9NSE4)
T3 sequence (Q9NSE4 whole entry): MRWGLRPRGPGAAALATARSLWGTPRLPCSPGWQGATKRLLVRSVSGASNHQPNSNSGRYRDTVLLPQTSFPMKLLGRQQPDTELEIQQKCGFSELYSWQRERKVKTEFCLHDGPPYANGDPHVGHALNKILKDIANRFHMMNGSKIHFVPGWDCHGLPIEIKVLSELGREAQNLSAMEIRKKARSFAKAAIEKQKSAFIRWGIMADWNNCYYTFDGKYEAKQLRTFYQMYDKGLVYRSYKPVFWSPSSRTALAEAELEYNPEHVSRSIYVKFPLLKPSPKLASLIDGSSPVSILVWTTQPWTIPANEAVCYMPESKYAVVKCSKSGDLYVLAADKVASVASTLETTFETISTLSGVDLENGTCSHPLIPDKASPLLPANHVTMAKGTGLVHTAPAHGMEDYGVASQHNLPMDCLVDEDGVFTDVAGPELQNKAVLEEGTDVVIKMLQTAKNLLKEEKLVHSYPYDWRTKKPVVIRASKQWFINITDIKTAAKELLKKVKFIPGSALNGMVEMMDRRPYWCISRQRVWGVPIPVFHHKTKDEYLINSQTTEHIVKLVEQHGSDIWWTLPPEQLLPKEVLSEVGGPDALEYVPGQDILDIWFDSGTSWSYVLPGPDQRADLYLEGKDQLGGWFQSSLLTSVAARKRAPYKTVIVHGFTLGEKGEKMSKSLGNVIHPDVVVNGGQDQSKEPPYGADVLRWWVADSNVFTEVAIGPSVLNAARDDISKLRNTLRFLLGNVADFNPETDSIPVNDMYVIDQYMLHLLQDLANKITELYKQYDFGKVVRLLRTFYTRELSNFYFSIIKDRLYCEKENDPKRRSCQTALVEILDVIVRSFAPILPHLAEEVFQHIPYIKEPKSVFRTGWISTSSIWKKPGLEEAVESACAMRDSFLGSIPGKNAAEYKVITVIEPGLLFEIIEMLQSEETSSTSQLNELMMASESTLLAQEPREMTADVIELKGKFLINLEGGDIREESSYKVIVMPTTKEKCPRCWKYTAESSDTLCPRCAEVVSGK

Structure (SMILES) | Kd
COC(=O)N[C@@H](C)CNc1nccc(-c2cn(C(C)C)nc2-c2cc(Cl)cc(NS(C)(=O)=O)c2F)n1 [ENCORAFENIB] | > 30 µM (inactive)
COc1cc2nccc(Oc3ccc(NC(=O)NC4CC4)c(Cl)c3)c2cc1C(N)=O [LENVATINIB] | > 30 µM (inactive)
O=C(O)[C@]1(Cc2cccc(Nc3nccs3)n2)CC[C@@H](Oc2cccc(Cl)c2F)CC1 [MK-5108] | > 30 µM (inactive)

molecular target: Phosphatidylethanolamine-binding protein 1 (Homo sapiens, UniProt P30086)

Structure (SMILES) | Kd
COC(=O)N[C@@H](C)CNc1nccc(-c2cn(C(C)C)nc2-c2cc(Cl)cc(NS(C)(=O)=O)c2F)n1 [ENCORAFENIB] | > 30 µM (inactive)
COc1cc2nccc(Oc3ccc(NC(=O)NC4CC4)c(Cl)c3)c2cc1C(N)=O [LENVATINIB] | > 30 µM (inactive)

molecular target: Serine/threonine-protein kinase PLK1 (Homo sapiens, UniProt P53350)

Structure (SMILES) | Kd
Cc1c(F)cc(C(=O)NC2CC2)cc1-c1ccc(C(=O)NCC(C)(C)C)cn1 [LOSMAPIMOD] | > 30 µM (inactive)
